Results taken from PubChem BioAssay AID1645861 (Buhrlage Lab, Dana-Farber Cancer Institute and Novartis …, 2021).
Active and inactive are the calls of the source.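 How the source made its calls: active means compounds whose peak USP7 inhibition across the dose series reached 30% or more; inactive means the rest.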

Biological target: Ubiquitin carboxyl-terminal hydrolase 7 (Homo sapiens) (UniProt Q93009)
Test: Biochemical concentration-response for ubiquitin-specific peptidase 7 DUB inhibitors, verifying primary hits (AID 1645861)
Settings: purified USP7, Ub-rhodamine cleavage fluorescence, 60 min

Ubiquitin carboxyl-terminal hydrolase 7 (Homo sapiens), sequence (Q93009 whole entry, looked up): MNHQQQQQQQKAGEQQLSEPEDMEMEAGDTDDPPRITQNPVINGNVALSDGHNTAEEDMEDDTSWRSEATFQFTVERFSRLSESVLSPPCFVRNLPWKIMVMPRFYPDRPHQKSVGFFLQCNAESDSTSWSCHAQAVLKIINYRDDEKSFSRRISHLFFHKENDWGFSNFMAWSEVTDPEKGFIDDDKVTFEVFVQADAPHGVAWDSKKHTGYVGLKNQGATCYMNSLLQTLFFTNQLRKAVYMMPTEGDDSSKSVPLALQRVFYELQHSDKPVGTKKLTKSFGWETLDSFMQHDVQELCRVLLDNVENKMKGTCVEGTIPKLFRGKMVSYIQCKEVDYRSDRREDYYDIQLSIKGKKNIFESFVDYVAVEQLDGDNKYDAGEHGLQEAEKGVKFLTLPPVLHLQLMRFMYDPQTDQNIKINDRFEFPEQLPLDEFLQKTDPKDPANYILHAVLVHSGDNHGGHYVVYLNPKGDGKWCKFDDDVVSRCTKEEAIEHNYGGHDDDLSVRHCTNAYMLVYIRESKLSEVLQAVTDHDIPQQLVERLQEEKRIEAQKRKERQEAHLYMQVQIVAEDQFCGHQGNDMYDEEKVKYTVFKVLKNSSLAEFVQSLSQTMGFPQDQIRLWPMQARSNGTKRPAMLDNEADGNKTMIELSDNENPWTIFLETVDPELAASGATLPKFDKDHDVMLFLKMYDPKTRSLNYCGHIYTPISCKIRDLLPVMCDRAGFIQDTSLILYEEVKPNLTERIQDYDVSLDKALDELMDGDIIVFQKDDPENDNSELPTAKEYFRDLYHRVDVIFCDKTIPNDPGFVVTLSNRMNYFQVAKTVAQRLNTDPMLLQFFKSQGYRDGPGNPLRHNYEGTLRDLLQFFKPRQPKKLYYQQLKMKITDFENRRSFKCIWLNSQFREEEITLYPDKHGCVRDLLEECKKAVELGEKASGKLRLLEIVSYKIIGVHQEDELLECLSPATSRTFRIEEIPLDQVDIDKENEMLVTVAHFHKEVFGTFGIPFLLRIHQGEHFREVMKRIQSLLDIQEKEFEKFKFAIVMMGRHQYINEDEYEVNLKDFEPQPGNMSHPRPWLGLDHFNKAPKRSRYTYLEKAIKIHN

| Compound | IC50 |
| --- | --- |
| Cc1cccc2nc(CSc3nc4ccc([N+](=O)[O-])cc4[nH]3)cn12 | > 50 µM (inactive) |
| O=C(CSc1ncnc2c1oc1ccccc12)NCCc1ccccc1 | > 50 µM (inactive) |
| CC1=C(C)C(N(c2ccccc2)c2ccccc2)N(CCC(C)C)C1=O (stereo not given) | > 50 µM (inactive) |
| O=c1cc(-c2ccc(O)c(O)c2)oc2cc(O)cc(O)c12 | 2.81 µM |
| Cc1ccc2[nH]c(=O)c(-c3nc4ccccn4c3NCc3ccccc3)cc2c1 | > 50 µM (inactive) |
| CCOc1cccc(-c2noc(-c3nn(-c4ccccc4)ccc3=O)n2)c1 | > 50 µM (inactive) |
| Cc1nc(-c2ccc(Cl)cc2)oc1C(=O)Nc1ccc(Cl)cc1 | > 50 µM (inactive) |
| C[C@H](Cc1cc2c(cc1O)OCO2)[C@@H](C)Cc1cc2c(cc1O)OCO2 | > 50 µM (inactive) |
| CN1C(=O)COc2cc(-c3noc(C(=O)NCc4ccc(F)cc4)n3)ccc21 | > 50 µM (inactive) |

Next, values leading:

| IC50 | Compound |
| --- | --- |
| > 50 µM (inactive) | COc1ccc(OC)c(NC(=O)Cn2c(=O)n(C3CCCCC3)c(=O)c3ccccc32)c1 |
| > 50 µM (inactive) | O=C(Cn1c(=O)n(Cc2ccc3c(c2)OCO3)c(=O)c2ccccc21)NCc1ccco1 |
| > 50 µM (inactive) | CCOC(=O)c1cc2c(ccn2-c2ccc(F)cc2)n1CC(=O)Nc1ccc2c(c1)OCCO2 |
| > 50 µM (inactive) | O=C(CSc1nc2c(cnn2-c2ccccc2)c(=O)[nH]1)Nc1ccc(Cl)cc1F |
| > 50 µM (inactive) | Cc1cc(C)cc(NC(=O)Nc2ccccc2OCc2cc(=O)n3c(ncn3C(C)C)n2)c1 |
| > 50 µM (inactive) | COc1ccc(NC(=O)Cn2cc(C(=O)c3ccccc3)c(=O)c3cc(Cl)ccc32)cc1OC |
